Experiments:
D(2) dopamine receptor [1] = target: T1, D(2) dopamine receptor (Bos taurus, UniProt P20288); experiment: Inhibition of [3H]YM-09151-2 binding to bovine retina membrane Dopamine receptor D2, high affinity site
D(2) dopamine receptor [2] = target: T1, D(2) dopamine receptor; experiment: Inhibition of [3H]YM-09151-2 binding to bovine retina membrane Dopamine receptor D2, low affinity site
D(1A) dopamine receptor = D(1A) dopamine receptor (Bos taurus, UniProt Q95136); experiment: Binding affinity against Dopamine receptor D1 like from bovine retina membranes measured using [3H]SCH-23390 radioligand
Sequence of D(1A) dopamine receptor (Q95136 whole entry): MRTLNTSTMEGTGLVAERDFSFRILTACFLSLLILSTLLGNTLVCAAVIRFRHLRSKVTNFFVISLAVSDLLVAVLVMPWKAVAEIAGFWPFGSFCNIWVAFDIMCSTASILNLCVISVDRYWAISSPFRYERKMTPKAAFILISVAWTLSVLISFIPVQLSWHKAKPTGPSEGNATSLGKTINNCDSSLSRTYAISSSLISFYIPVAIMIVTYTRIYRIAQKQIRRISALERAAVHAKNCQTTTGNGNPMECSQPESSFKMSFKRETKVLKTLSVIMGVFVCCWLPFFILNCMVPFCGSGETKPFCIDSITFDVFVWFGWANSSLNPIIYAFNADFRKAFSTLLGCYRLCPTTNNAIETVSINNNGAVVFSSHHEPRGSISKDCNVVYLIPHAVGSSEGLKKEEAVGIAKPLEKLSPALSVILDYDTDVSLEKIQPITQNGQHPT

D(2) dopamine receptor [3] = target: T1, D(2) dopamine receptor; experiment: Tested for binding affinity against Dopamine receptor D2 like from bovine striatum membranes by using [3H]YM-09151-2 radioligand

T1 sequence (P20288 whole entry): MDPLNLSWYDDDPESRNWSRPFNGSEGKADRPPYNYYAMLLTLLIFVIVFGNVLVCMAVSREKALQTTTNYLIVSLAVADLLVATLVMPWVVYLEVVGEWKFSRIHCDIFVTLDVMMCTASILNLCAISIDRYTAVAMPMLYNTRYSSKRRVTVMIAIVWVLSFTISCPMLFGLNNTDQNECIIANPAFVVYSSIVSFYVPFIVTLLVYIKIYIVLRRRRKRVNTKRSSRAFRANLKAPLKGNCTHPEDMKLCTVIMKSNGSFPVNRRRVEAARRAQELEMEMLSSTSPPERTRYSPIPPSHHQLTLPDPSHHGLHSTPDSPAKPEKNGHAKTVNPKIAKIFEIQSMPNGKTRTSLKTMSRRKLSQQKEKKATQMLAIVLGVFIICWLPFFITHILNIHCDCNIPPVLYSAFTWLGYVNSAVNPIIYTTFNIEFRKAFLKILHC

Row | SMILES | Ki (D(2) dopamine receptor [1]) | Ki (D(2) dopamine receptor [2]) | Ki (D(1A) dopamine receptor) | Ki (D(2) dopamine receptor [3])
1 | Cc1cccc(C2CCCNC2)c1C (stereo unspecified) | 0.043 µM | 16 µM | – | –
2 | CCCN1CCCC(c2cc(C)cc(C)c2)C1 (stereo unspecified) | 0.052 µM | 9.3 µM | 60 µM | 1.3 µM
3 | CCCN1CCCC(c2ccc(C)cc2C)C1 (stereo unspecified) | 0.72 µM | 17 µM | 100 µM | –
4 | CCCN1CCCC(c2c(C)cccc2C)C1 (stereo unspecified) | 0.156 µM | 23 µM | 98 µM | –
5 | CCCN1CCCC(c2cc(C)ccc2C)C1 (stereo unspecified) | 0.54 µM | 25 µM | 112 µM | –
6 | CCCN1CCCC(c2cccc(C)c2C)C1 (stereo unspecified) | 0.0753 µM | 7.8 µM | 60 µM | 4.9 µM
7 | Cc1cc(C)cc(C2CCCNC2)c1 (stereo unspecified) | 0.24 µM | 24 µM | – | –
8 | Cc1ccc(C2CCCNC2)cc1C (stereo unspecified) | 0.14 µM | 19 µM | – | –
9 | CCCN1CCCC(c2ccc(C)c(C)c2)C1 (stereo unspecified) | 0.0191 µM | 8.2 µM | 102 µM | 4.99 µM
10 | NCCc1ccc(O)c(O)c1 [DOPAMINE] | – | – | 4.3 µM | –
11 | CCCN1CCC[C@@H](c2cccc(O)c2)C1 [PRECLAMOL] | 0.53 µM | 12 µM | – | 2.1 µM

Source: ChEMBL document CHEMBL1131416 (J Med Chem, 1998)
